These results are taken from patent publication US20250177418A1, “NEUROACTIVE STEROIDS FOR TREATMENT OF GASTROINTESTINAL DISEASES OR CONDITIONS” (Sage Therapeutics, Inc., priority 2022, published 2025).

The subject of the first series is patients with major depressive disorder.
Test: not given
The following applies: MDD patients, meta-analysis; cited from earlier work.
Regarding `COc1ccc2cccc(CCNC(C)=O)c2c1` [agomelatine], the “Rates of gastrointestinal adverse reactions compared to placebo” value (from here on “Rates … compared to placebo”) is “higher rates”. As to `CC(NC(C)(C)C)C(=O)c1cccc(Cl)c1` (centres unmarked) [bupropion], the “Rates … compared to placebo” value is listed as “higher rates”. With `CN(C)CCCC1(c2ccc(F)cc2)OCc2cc(C#N)ccc21` (centres unmarked) [citalopram], the “Rates … compared to placebo” value is “higher rates”.

As to `CN(C)CC(c1ccc(O)cc1)C1(O)CCCCC1` (centres unmarked) [desvenlafaxine], the “Rates … compared to placebo” value is “higher rates”. As for `CNCC[C@H](Oc1cccc2ccccc12)c1cccs1` [duloxetine], the “Rates … compared to placebo” value is reported as “higher rates”. As to `CN(C)CCC[C@@]1(c2ccc(F)cc2)OCc2cc(C#N)ccc21` [escitalopram], the “Rates … compared to placebo” value was “higher rates” and the “Tolerability on the gastrointestinal tract among antidepressants” value was “least tolerated”.

As for `CNCCC(Oc1ccc(C(F)(F)F)cc1)c1ccccc1` (centres unmarked) [fluoxetine], the “Rates … compared to placebo” value was “higher rates”.

For the molecule `COCCCC/C(=N\OCCN)c1ccc(C(F)(F)F)cc1` [fluvoxamine], the “Rates … compared to placebo” value is given as “higher rates”.

`CCN(CC)C(=O)[C@@]1(c2ccccc2)C[C@H]1CN` [levomilnacipran]: the “Rates … compared to placebo” value is “higher rates”. As for `CN1CCN2c3ncccc3Cc3ccccc3C2C1` (centres unmarked) [mirtazapine], the “Rates … compared to placebo” value is listed as “higher rates”.

In the case of `Fc1ccc([C@@H]2CCNC[C@H]2COc2ccc3c(c2)OCO3)cc1` [paroxetine], the “Rates … compared to placebo” value is given as “higher rates”. Consider `CCOc1ccccc1OC(c1ccccc1)C1CNCCO1` (centres unmarked) [reboxetine], for which the “Rates … compared to placebo” value is given as “higher rates”. Take `CN[C@H]1CC[C@@H](c2ccc(Cl)c(Cl)c2)c2ccccc21` [sertraline]: the “Rates … compared to placebo” value is recorded as “higher rates” and the “Tolerability on the gastrointestinal tract among antidepressants” value is “least tolerated”. As to `COc1ccc(C(CN(C)C)C2(O)CCCCC2)cc1` (centres unmarked) [venlafaxine], the “Rates … compared to placebo” value is on record as “higher rates”.

As for `Cc1ccc(Sc2ccccc2N2CCNCC2)c(C)c1` [vortioxetine], the “Rates … compared to placebo” value is listed as “higher rates”.

System in another series: not given
Test: not given
Particulars: compared to SSRIs and duloxetine; cited from earlier work.
In the case of `COc1ccc(C(CN(C)C)C2(O)CCCCC2)cc1` (centres unmarked) [venlafaxine], the “Rates of nausea and vomiting” value was “higher rates”.

Still in this series, the particulars now being: compared to other SSRIs and venlafaxine; cited from earlier work.
Consider `CN[C@H]1CC[C@@H](c2ccc(Cl)c(Cl)c2)c2ccccc21` [sertraline], for which the Incidence of diarrhea entry is “higher incidence”.

For a further series, the system named is participants with major depressive disorder (MDD). In words: Treatment-emergent adverse events (safety), study NCT04476030. Type of series: in vivo, human. Particulars: one patient, approximately 1 hour after Compound (1) 50 mg on Day 7. As to the method: A randomized, double-blind, parallel-group, active/placebo-controlled study (NCT04476030) in participants with major depressive disorder (MDD) was conducted. The study evaluated the efficacy and safety of Compound (1) 50 mg co-initiated with standard-of-care (SOC) antidepressant therapies (ADTs) (Compound (1)+ADT) vs placebo co-initiated with SOC ADT (placebo+ADT) in adults with MDD. Patients were randomized 1:1 to once-daily, blinded Compound (1)+ADT or placebo+ADT for 14 days then continued open-label SOC ADT for 28 more days.
An AE could therefore be any unfavorable and unintended sign (including an abnormal laboratory finding), symptom or disease temporally associated with the use of a medicinal (investigational) product whether or not related to the medicinal (investigational) product. In clinical studies, an AE could include an undesirable medical condition occurring at any time, including baseline or washout periods, even if no study treatment had been administered.
A treatment emergent adverse event (TEAE) was defined as an AE with onset after the start of investigational product (IP; Compound (1) or placebo), or any worsening of a pre-existing medical condition/AE with onset after the start of IP and throughout the study. The term IP included any Sage IP, a comparator, or a placebo administered in a clinical study. […]
Take `C[C@@]1(O)CC[C@H]2[C@H](CC[C@@H]3[C@@H]2CC[C@]2(C)[C@@H](C(=O)Cn4cc(C#N)cn4)CC[C@@H]32)C1` [Compound (1), 1-(2-((3R,5R,8R,9R,10S,13S,14S,17S)-3-hydroxy-3,13-dimethylhexadecahydro-1H-cyclopenta[a]phenanthren-17-yl)-2-oxoethyl)-1H-pyrazole-4-carbonitrile]: the “Investigator-assessed relationship of serious TEAE (seizure-like phenomena) to study drug” value is reported as “related”.
